Experimental data from US9109004B2, “Progesterone receptor antagonists” (Bayer Intellectual Property GmbH, priority 2010, dated 2015).

Experiments:
[1] = biological target: T1, human progesterone receptor A (Homo sapiens, UniProt P06401); assay: Progesterone-receptor-antagonistic action in stably transfected SK-N-MC cells, MTV-LUC reporter (PR-A); assay type: cell-based; conditions: antagonistic potency vs 0.1 nmol/l promegestone, 24 hours, luciferase
T1 construct: expressed in transfected cells; host or cells: SK-N-MC human neuroblastoma cells, stably transfected
T1 sequence (P06401 1-769 isoform P06401-2): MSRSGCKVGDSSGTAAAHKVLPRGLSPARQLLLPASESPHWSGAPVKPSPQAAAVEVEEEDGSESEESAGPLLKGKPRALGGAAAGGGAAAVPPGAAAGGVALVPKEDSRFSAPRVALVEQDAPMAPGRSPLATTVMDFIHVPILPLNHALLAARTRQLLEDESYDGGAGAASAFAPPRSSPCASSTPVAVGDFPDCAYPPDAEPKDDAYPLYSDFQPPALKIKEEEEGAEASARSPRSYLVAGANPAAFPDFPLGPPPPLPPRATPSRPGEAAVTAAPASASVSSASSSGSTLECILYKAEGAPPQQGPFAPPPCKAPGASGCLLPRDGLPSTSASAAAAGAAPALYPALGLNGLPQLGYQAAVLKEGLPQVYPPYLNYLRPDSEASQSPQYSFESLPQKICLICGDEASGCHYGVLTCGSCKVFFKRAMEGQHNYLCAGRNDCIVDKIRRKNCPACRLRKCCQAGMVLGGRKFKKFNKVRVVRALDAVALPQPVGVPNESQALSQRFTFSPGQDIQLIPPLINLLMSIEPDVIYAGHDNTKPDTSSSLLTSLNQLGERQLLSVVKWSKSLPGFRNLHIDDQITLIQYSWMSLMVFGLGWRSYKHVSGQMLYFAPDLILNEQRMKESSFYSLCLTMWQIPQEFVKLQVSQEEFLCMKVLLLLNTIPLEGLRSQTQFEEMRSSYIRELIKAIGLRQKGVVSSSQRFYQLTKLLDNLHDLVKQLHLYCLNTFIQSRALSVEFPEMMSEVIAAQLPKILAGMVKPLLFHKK
In short: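 SK-N-MC neuroblastoma cells stably expressing human PR-B or PR-A plus MMTV-LUC reporter, treated 24 h with 0.1 nmol/l promegestone plus test compound at 0.01 nmol/l–1 μmol/l. Luciferase in lysates read as RLU; values as % efficacy and IC50.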

pregnant rats = assay: Test as abortifacient in female rats (termination of early pregnancy); assay type: in vivo, rat; conditions: d5-d7 p.c., autopsy d9 p.c.
Experimental: Test as Abortifacient in Female Rats
The antagonistic action of the compounds according to the invention was tested on pregnant rats (6 rats per group) on day 5 to 7 post coitum in conventional conditions of husbandry and feeding.
After successful mating, the pregnant animals (presence of sperm in the vaginal smear on day 1 of pregnancy=d1 p.c.) were randomized and were divided into the treatment group and the control group. The animals then received, subcutaneously or orally, in each case 0.15; 0.5; 1.5 or 5 mg/kg of the test compound or 1.0 ml/kg of vehicle (benzyl benzoate/castor oil: 1+4 [v/v]) daily from day 5 to day 7 (d5-d7 p.c.).
Autopsy was carried out on day 9 (d9 p.c.). For characterization of progesterone-receptor-antagonistic action, the uterus was investigated for the presence of nidation sites. Complete absence, but also the presence of pathological, haemorrhagic or otherwise abnormal nidation sites on day 9 (d9 p.c.) was assessed as abortion.

[2] = Metabolic stability in human liver microsomes (HLM); assay type: in vitro ADME; conditions: from HLM half-life, well-stirred model, phase I reactions; 1 μM test compound
Experimental: Metabolic stability of 4-[(11β,17β)-17-hydroxy-3-oxo-17-(pentafluoro-ethyl)estra-4,9-dien-11-yl]benzamide and 4′-[(11β,17β)-17-hydroxy-3-oxo-17-(pentafluoro-ethyl)estra-4,9-dien-11-yl]biphenyl-4-carboxamide in human liver microsomes (HLM) Isolated human liver microsomes (HLM) were used for assessing the metabolic stability of compounds of general formula I. The incubations were carried out with 2.4 ml HLM solution (0.5 mg/ml protein content), 30 μl of the test compound (final concentration 1 μM) and 0.6 ml of the cofactor mixture (=NADPH-generating system of 3 IU glucose-6-phosphate dehydrogenase, 14.6 mg glucose-6-phosphate, 1.2 mg NADP) at 37° C. in 100 mM phosphate buffer at pH 7.4. Samples are taken at 6 time points (2-60 min), precipitated with an equal volume of methanol, and the recovery of the test substances used in the supernatant is determined by LC-MS/MS analysis. The intrinsic clearance of the substance in the liver microsome assay can be calculated from the value found for the half-life of substance breakdown. Using this, on the basis of various physiological characteristics according to the well-stirred model it is possible to predict a (metabolic) in-vivo clearance with respect to phase I reactions.

With `C[C@]12C[C@H](c3ccc(-c4ccc(C(N)=O)cc4)cc3)C3=C4CCC(=O)C=C4CC[C@H]3[C@@H]1CC[C@@]2(O)C(F)(F)C(F)(F)F` [Example 79, 4′-[(11β,17β)-17-Hydroxy-3-oxo-17-(pentafluoroethyl)estra-4,9-dien-11-yl]biphenyl-4-carboxamide] the IC50 [1] was 0.01 nM, the Abortion rate (pregnant rats; daily dose 0.5 mg/kg p.o.) was 100% and the Abortion rate (pregnant rats; daily dose 1.5 mg/kg p.o.) was 100%. For the same compound, the Abortion rate (pregnant rats; daily dose 5.0 mg/kg p.o.) was 100% and the “(metabolic) in-vivo clearance in humans predicted” value [2] was 0.21 L/h/kg.
